Test results as given in ChEMBL document CHEMBL1201862, “PubChem BioAssay data set” (2004).
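Five concentrations, 48 hours, 96-well plates. At the GI50, growth is halved.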 The source made the active and inactive calls. Cut-off read from the data, not from the text of the source: active = GI50 up to about 1.1 µM and inactive = higher.

Tests used:
Test in all cases: NCI-60 cell line screen, 48 h
[1] = test system: 786-0
[2] = test system: A498
[3] = test system: A549
[4] = test system: ACHN
[5] = test system: BT-549
[6] = test system: CAKI-1
[7] = test system: CCRF-CEM
[8] = test system: COLO 205
[9] = test system: DU-145
[10] = test system: EKVX
[11] = test system: HCC 2998
[12] = test system: HCT-116
[13] = test system: HCT-15
[14] = test system: HL-60
[15] = test system: HOP-62
[16] = test system: HOP-92
[17] = test system: HT-29
[18] = test system: Hs-578T
[19] = test system: IGROV-1
[20] = test system: K562
[21] = test system: KM12
[22] = test system: LOX IMVI
[23] = test system: M14
[24] = test system: MCF7
[25] = test system: MDA-MB-231
[26] = test system: MDA-MB-435
[27] = test system: MDA-N
[28] = test system: MOLT-4
[29] = test system: Malme-3M
[30] = test system: NCI-H226
[31] = test system: NCI-H23
[32] = test system: NCI-H460
[33] = test system: NCI-H522
[34] = test system: NCI/ADR-RES
[35] = test system: OVCAR-3
[36] = test system: OVCAR-4
[37] = test system: OVCAR-5
[38] = test system: OVCAR-8
[39] = test system: PC-3
[40] = test system: RPMI-8226
[41] = test system: RXF 393
[42] = test system: SF-268
[43] = test system: SF-295
[44] = test system: SF-539
[45] = test system: SK-MEL-28
[46] = test system: SK-MEL-2
[47] = test system: SK-MEL-5
[48] = test system: SK-OV-3
[49] = test system: SN12C
[50] = test system: SNB-19
[51] = test system: SNB-75
[52] = test system: SR
[53] = test system: SW-620
[54] = test system: T47D
[55] = test system: TK-10
[56] = test system: U-251
[57] = test system: UACC-257
[58] = test system: UACC-62
[59] = test system: UO-31

Measured: GI50

O=C(c1ccccc1)C(Nc1ccc2ccccc2c1)c1ccccc1 (centres undefined)
29 µM: [13]
inactive: [1] 36.7 µM | [2] 21.3 µM | [3] 33.3 µM | [4] 48.8 µM | [5] 32.1 µM | [6] > 100 µM | [7] 13.7 µM | [8] 17.6 µM | [9] 42 µM | [10] 17.6 µM | [11] 20.7 µM | [12] 15.7 µM | [14] 13.1 µM | [15] 36.6 µM | [16] 41.7 µM | [17] 24.5 µM | [18] 40.2 µM | [19] 29.7 µM | [20] 7.36 µM | [21] 19.8 µM | [22] 35.3 µM | [23] 31.3 µM | [24] 12.7 µM | [25] 28.8 µM | [26] 4.85 µM | [27] 7.05 µM | [28] 8.41 µM | [29] 30.2 µM | [30] > 60.7 µM | [31] 24.4 µM | [32] 21.2 µM | [33] 6.98 µM | [34] 25.2 µM | [35] 13.9 µM | [36] 38.1 µM | [37] > 52.7 µM | [38] 42 µM | [39] 17.6 µM | [40] 11.1 µM | [41] > 43.9 µM | [42] 39.5 µM | [43] 24.7 µM | [44] 54.2 µM | [45] 49.7 µM | [46] 14.2 µM | [47] 16.9 µM | [48] 40.7 µM | [49] 26.9 µM | [50] 34.7 µM | [51] 33.5 µM | [52] 7.89 µM | [53] 27.7 µM | [54] 11.3 µM | [55] 29 µM | [56] 21.9 µM | [57] 15.3 µM | [58] 18.2 µM | [59] > 65 µM
